Results published in US9150558B2, “Nicotine receptor targeted compounds and compositions” (University of Florida Research Foundation, priority 2011, dated 2015).
Like-named read-outs stand apart in the source and are kept apart here.

Legend:
[1] = target: T1, α7 Receptor (alpha7 nAChR) (Rattus norvegicus, UniProt Q05941); experiment: Displacement binding of 125I-α-bungarotoxin to rat brain membranes (α7 nAChR); conditions: for α7/α4β2 Selectivity (Selectivity factor): Ki for alpha4beta2 binding divided by Ki for alpha7 binding, rat brain; for Enantiomeric Selectivity: given once per enantiomer pair, on the line of the first enantiomer, rat α7 binding
T1 construct: protein concentration of the rat brain membranes contained in the pellet; tissue Pel-Freeze Biologicals; host or cells: whole male Sprague-Dawley rat brain membranes
T1 sequence (Q05941 23-502): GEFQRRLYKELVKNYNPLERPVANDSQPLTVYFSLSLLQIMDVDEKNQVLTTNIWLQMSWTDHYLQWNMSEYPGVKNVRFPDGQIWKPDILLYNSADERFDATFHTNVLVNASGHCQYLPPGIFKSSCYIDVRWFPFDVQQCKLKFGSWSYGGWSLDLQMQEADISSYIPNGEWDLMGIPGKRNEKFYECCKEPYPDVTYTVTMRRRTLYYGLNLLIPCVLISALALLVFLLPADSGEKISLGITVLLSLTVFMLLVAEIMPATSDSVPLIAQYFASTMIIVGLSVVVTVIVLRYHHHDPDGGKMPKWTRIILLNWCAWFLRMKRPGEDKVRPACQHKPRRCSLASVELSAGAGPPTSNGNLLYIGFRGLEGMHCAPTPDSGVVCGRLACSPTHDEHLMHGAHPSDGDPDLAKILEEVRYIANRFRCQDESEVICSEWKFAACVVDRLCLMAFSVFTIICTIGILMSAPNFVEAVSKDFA
Source text: As used herein, the term “selectively binds,” “selective binding,” and cognates thereof refer to anabaseine compounds that preferentially bind one type of nicotinic acetylcholine receptor relative to another type of acetylcholine receptor (e.g., α7 nAChR versus the α4β2 nAChR). Because Ki is an inverse measure of affinity, binding selectivity of a compound for the α7 nAChR versus the α4β2 nAChR is expressed by dividing the Ki for binding to the α4β2 nAChR by the Ki for binding to the α7 nAChR. In one embodiment, a compound of the invention selectively binds α7 nAChR compared to α4β2 nAChR. The selectivity of a compound of the invention for α7 nAChR over α4β2 nAChR is at least 2, 3, 4, 5, 6, 7, 8, 9, 10, 11, 12, 13, 14, 15, or more. In another embodiment, a compound of the invention selectively binds α4β2 nAChR compared to α7 nAChR. The selectivity of a compound of the invention for α4β2 nAChR over α7 nAChR is at least 2, 3, 4, 5, 6, 7, 8, 9, 10, 11, 12, 13, 14, 15, or more. Binding to the α7 and α4β2 nAChR (including relative binding to each of these receptors) can be determined by the skilled artisan using the methods known in the art, in particular in view of the teachings provided herein. In particular, the assays used to determine selective binding are according to Marks and Collins for [^125I]alpha-bungarotoxin experiments (for alpha7 receptor binding) and a modified method by Pabreza et al. for [^3H]cytisine experiments (for α4β2), used as described in US 2009/0215705.
(§1) Whole male Sprague-Dawley rat brains (Pel-Freeze Biologicals, Rogers, Ariz.) were homogenized with a 30 ml Wheaton (location) glass homogenizing tube and pestle in binding saline (120 mM NaCl, 5 mM KCl, 2 mM CaCl2, 1 mM MgCl2, 50 mM Tris-TrisHCl buffer, pH 7.4). After the homogenate was centrifuged at 11,000 rpm (convert to ×G) for a 10 min, the resulting pellet was resuspended in fresh binding saline and homogenized and centrifuged again. A protein assay (BCA, Pierce, Rockford, Ill.) was then performed to obtain the protein concentration of the rat brain membranes contained in the pellet, which was stored at −85° C. before use.
Radioligands used in the displacement binding assays were obtained from Perkin Elmer Life and Analytical Sciences (Boston, Mass.). ^3H-Cytisine was used to selectively bind to alpha4beta2 nAChRs and ^125I-α-bungarotoxin (α-Btx) for alpha? nAChRs. ^3H-Cytisine (34 Ci/mmol) experiments were performed according to Flores et al. (1992) with a few minor alterations, specifically that the incubation time was increased to four hours at 4° C. to assure binding equilibrium. The ^125I-α-Btx (136 Ci/mmol) experiments involved 37° C. incubation for three hours to assure equilibration. Both radioligands were generally tested at final concentrations of 1 nM. Membranes at the above mentioned concentrations were suspended in binding saline containing 2 mg/ml of bovine serum albumin (Sigma, St. Louis, Mo.) to reduce non-specific binding. For each radioligand, nonspecific binding was measured in the presence of a final concentration of 1 mM (S)-nicotine hydrogen tartrate salt (Sigma, St. Louis, Mo.). After incubation, radioligand bound to membranes in 48 tubes was rapidly collected by vacuum filtration using a Brandel cell harvester (Gaithersburg, Md.) and Whatman GF/C glass fiber filters that were pre-soaked in 0.5% polyethylenimine for 45 minutes to reduce nonspecific binding. The radiolabeled membranes were rapidly washed three times with 3 ml ice-cold binding saline to separate bound from free radioligand. Filters containing ^3H-cytisine bound membranes were placed in 20 ml scintillation tubes and suspended in 8 mls of 30% Scintisafe scintillation fluid (Fisher), then counted in a Beckman LS-6500 liquid scintillation counter (Fullerton, Calif.). Filters containing ^125I-α-Btx bound membranes were placed in 4 ml scintillation vials and counted in a Beckman 5500B gamma counter (Fullerton, Calif.). […]

[2] = target: T2, α4β2 Receptor (alpha4beta2 nAChR) (Rattus norvegicus, UniProt P09483+P12390); experiment: Displacement binding of 3H-cytisine to rat brain membranes (α4β2 nAChR)
T2 construct: protein concentration of the rat brain membranes contained in the pellet; tissue Pel-Freeze Biologicals; host or cells: whole male Sprague-Dawley rat brain membranes
T2 sequence (P09483 31-630): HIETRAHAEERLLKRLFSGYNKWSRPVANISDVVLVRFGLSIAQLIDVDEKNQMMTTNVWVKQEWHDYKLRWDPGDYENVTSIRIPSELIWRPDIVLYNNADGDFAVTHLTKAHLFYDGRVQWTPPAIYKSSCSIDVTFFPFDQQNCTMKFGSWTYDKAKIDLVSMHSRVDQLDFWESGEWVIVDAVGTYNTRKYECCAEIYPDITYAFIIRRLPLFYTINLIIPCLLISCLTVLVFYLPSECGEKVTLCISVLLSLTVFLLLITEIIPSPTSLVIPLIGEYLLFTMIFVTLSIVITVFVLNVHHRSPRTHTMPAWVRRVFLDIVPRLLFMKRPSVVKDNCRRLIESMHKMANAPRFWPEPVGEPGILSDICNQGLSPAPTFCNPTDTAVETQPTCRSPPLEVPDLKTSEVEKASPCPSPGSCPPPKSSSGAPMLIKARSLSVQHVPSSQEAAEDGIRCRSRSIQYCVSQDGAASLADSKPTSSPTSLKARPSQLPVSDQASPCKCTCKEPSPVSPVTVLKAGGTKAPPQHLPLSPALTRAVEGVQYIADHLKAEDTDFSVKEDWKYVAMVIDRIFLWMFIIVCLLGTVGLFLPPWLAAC
T2 sequence (P12390 25-500): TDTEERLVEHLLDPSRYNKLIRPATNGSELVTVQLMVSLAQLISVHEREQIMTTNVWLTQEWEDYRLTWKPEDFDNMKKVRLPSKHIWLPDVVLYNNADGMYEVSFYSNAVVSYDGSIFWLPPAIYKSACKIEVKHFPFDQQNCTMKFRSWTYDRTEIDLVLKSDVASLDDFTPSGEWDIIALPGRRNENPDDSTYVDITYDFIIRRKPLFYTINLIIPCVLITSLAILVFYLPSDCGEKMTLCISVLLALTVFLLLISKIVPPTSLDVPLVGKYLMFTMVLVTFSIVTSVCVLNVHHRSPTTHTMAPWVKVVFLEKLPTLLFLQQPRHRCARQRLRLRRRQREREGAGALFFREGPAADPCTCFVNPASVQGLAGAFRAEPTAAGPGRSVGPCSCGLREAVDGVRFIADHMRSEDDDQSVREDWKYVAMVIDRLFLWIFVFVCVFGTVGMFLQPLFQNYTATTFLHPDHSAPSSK
Method: as §1
Radioligands used in the displacement binding assays were obtained from Perkin Elmer Life and Analytical Sciences (Boston, Mass.). ^3H-Cytisine was used to selectively bind to alpha4beta2 nAChRs and ^125I-α-bungarotoxin (α-Btx) for alpha? nAChRs. ^3H-Cytisine (34 Ci/mmol) experiments were performed according to Flores et al. (1992) with a few minor alterations, specifically that the incubation time was increased to four hours at 4° C. to assure binding equilibrium. The ^125I-α-Btx (136 Ci/mmol) experiments involved 37° C. incubation for three hours to assure equilibration. Both radioligands were generally tested at final concentrations of 1 nM. Membranes at the above mentioned concentrations were suspended in binding saline containing 2 mg/ml of bovine serum albumin (Sigma, St. Louis, Mo.) to reduce non-specific binding. For each radioligand, nonspecific binding was measured in the presence of a final concentration of 1 mM (S)-nicotine hydrogen tartrate salt (Sigma, St. Louis, Mo.). After incubation, radioligand bound to membranes in 48 tubes was rapidly collected by vacuum filtration using a Brandel cell harvester (Gaithersburg, Md.) and Whatman GF/C glass fiber filters that were pre-soaked in 0.5% polyethylenimine for 45 minutes to reduce nonspecific binding. The radiolabeled membranes were rapidly washed three times with 3 ml ice-cold binding saline to separate bound from free radioligand. Filters containing ^3H-cytisine bound membranes were placed in 20 ml scintillation tubes and suspended in 8 mls of 30% Scintisafe scintillation fluid (Fisher), then counted in a Beckman LS-6500 liquid scintillation counter (Fullerton, Calif.). Filters containing ^125I-α-Btx bound membranes were placed in 4 ml scintillation vials and counted in a Beckman 5500B gamma counter (Fullerton, Calif.).
Displacement assay binding data were analyzed using GraphPad Prism software (San Diego, Calif.). The mean counts per minute values for each concentration of a given compound concentration were obtained from 4 replicates. The data were fitted to a sigmoidal concentration response curve from which the Hill slope (n) and IC50 (X) values were estimated: Y=Bottom+(Top−Bottom)/(1+10^(Log IC50-X)n) Here, Top=maximal specific binding of radioligand at the top of the curve and Bottom=minimum specific binding observed at high concentrations of the displacing ligand. […] Results and Discussion

[3] = rat brain membranes, 3H-cytisine 1 nM, 4° C. four hours, read-out: α4β2 Receptor Rat Ki
[4] = rat brain membranes, 125I-α-Btx 1 nM, 37° C. three hours, read-out: α7 Receptor Rat Ki

## c1cncc(C2=NCCCC2)c1 [Compound 1, anabaseine, reference compound]
[1]
  Ki: 290 nM
  α7/α4β2 Selectivity (Selectivity factor): 0.26
[2]
  Ki: 76 nM

## COc1ccc(/C=C2\CCCN=C2c2cccnc2)c(OC)c1 [Compound 2, 3-(2,4-dimethoxybenzylidene)-anabaseine, reference compound]
[1]
  α7/α4β2 Selectivity (Selectivity factor): 1.91

## Oc1ccc(C=C2CCCN=C2c2cccnc2)cc1 [Compound 3, reference compound]
[1]
  α7/α4β2 Selectivity (Selectivity factor): 1.2
[2]; [3]
  Ki: 450 nM

## COc1ccc(C=C2C(c3cccnc3)=NCC[C@H]2C)c(OC)c1 [Compound 4, 3-(DMXB)-4(R)-methyl-anabaseine]
[1]
  Ki: 62 nM
  α7/α4β2 Selectivity (Selectivity factor): 2.5
  Enantiomeric Selectivity: 2.0
[2]; [3]
  Ki: 153 nM

## COc1ccc(/C=C2/C(c3cccnc3)=NCC[C@@H]2C)c(OC)c1 [Compound 5, 3-(2,4-Dimethoxybenzylidene)-4(S)-methyl-anabaseine]
[1]
  Ki: 125 nM
  α7/α4β2 Selectivity (Selectivity factor): 1.5
[2]; [3]
  Ki: 191 nM

## COc1ccc(C=C2CC(C)CN=C2c2cccnc2)c(OC)c1 (stereo not shown) [Compound 6]
[1]
  Enantiomeric Selectivity: 6.8
[1]; [4]
  Ki: 220 nM

## COc1ccc(C=C2CC(C)CN=C2c2cccnc2)c(OC)c1 (stereo not shown) [Compound 7]
[1]
  Ki: 1500 nM

## COc1ccc(/C=C2\CC[C@H](C)N=C2c2cccnc2)c(OC)c1 [Compound 8, 3-(2,4-Dimethoxybenzylidene)-6(S)-methyl-anabaseine]
[1]
  Ki: 208 nM
  α7/α4β2 Selectivity (Selectivity factor): 2.8
  Enantiomeric Selectivity: 3.3
[2]; [3]
  Ki: 588 nM

## COc1ccc(C=C2CC[C@@H](C)N=C2c2cccnc2)c(OC)c1 [Compound 9, 3-(DMXB)-6(R)-methyl-anabaseine]
[1]
  Ki: 401 nM
  α7/α4β2 Selectivity (Selectivity factor): 0.86
[2]; [3]
  Ki: 344 nM

## COc1ccc(C=C2C(c3cccnc3)=NC(C)CC2C)c(OC)c1 (stereo not shown) [Compound 10]
[1]
  α7/α4β2 Selectivity (Selectivity factor): 1.3
  Enantiomeric Selectivity: 11
[1]; [4]
  Ki: 37.6 nM
[2]; [3]
  Ki: 49.8 nM

## COc1ccc(/C=C2/C(c3cccnc3)=N[C@H](C)C[C@@H]2C)c(OC)c1 [Compound 11]
[1]
  α7/α4β2 Selectivity (Selectivity factor): 1.5
[1]; [4]
  Ki: 409 nM
[2]; [3]
  Ki: 610 nM

## COc1ccc(/C=C2/C(c3cccnc3)=N[C@H]3CC[C@@H]2C3)c(OC)c1 [Compound 12, (1S,5R,E)-4-(2,4-dimethoxybenzylidene)-3-(pyridin-3-yl)-2-azabicyclo[3.2.1]oct-2-ene]
[1]
  Ki: 16.4 nM
  α7/α4β2 Selectivity (Selectivity factor): 13
  Enantiomeric Selectivity: 270
[2]; [3]
  Ki: 219 nM

## COc1ccc(/C=C2/C(c3cccnc3)=N[C@@H]3CC[C@H]2C3)c(OC)c1 [Compound 13, (1R,5S,E)-4-(2,4-dimethoxybenzylidene)-3-(pyridin-3-yl)-2-azabicyclo[3.2.1]oct-2-ene]
[1]
  Ki: 4400 nM
  α7/α4β2 Selectivity (Selectivity factor): 0.079
[2]; [3]
  Ki: 347 nM

## Oc1ccc(/C=C2/C(c3cccnc3)=N[C@H]3CC[C@@H]2C3)cc1 [Compound 14, 4-((E)-((1S,5R)-3-(pyridin-3-yl)-2-azabicyclo[3.2.1]oct-2-en-4-ylidene)methyl)phenol]
[1]
  Ki: 34.1 nM
  α7/α4β2 Selectivity (Selectivity factor): 2.1
[2]
  Ki: 72.5 nM

## C[C@H]1CC/C(=C\c2ccc(N)cc2)C(c2cccnc2)=N1 [Compound 15, 3-(4-Aminobenzylidene)-6(S)-methyl-anabaseine]
[1]
  Ki: 73 nM
  α7/α4β2 Selectivity (Selectivity factor): 4.3
[2]; [3]
  Ki: 314 nM

## Nc1ccc(/C=C2/C(c3cccnc3)=N[C@H]3CC[C@@H]2C3)cc1 [Compound 16, 3-(4-Aminobenzylidene)-4(R),6(S)-ethylene-anabaseine]
[1]
  Ki: 3.43 nM
  α7/α4β2 Selectivity (Selectivity factor): 9.9
[2]
  Ki: 34.1 nM
